The experiment deals with Rv1466 (Mycobacterium tuberculosis, UniProt O53157). Description: biochemical. In kind it is binding.

Structures are written as SMILES.

Rv1466, sequence (O53157 entry or part of it): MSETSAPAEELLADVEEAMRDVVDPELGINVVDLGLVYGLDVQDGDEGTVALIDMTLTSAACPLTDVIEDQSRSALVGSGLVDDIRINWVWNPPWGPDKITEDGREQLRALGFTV

Consider `O=C1C=C[C@@H]2O[C@H](c3ccccc3)[C@@H](O)[C@@H]2O1` [altholactone], for which the Kd (in general, the concentration at which binding is half-saturated) is 42 ± 6.1 µM.

The values are drawn from PMC7288112 (Molecules, 2020).
